Drawing on DBAASP, this text covers MIC for twelve compounds.

What is called MIC is the least concentration at which growth counts as inhibited. Low readings indicate inhibition by little substance, high ones a need for much substance.

What all share (experiment): ≥ marks a high value that may be exact or a test limit, other limits are often not marked, values filed in µg/mL are converted to µM
For experiment [1], the system named is Escherichia coli ATCC 25922.
For experiment [2], the system named is Candida albicans ATCC 10231.
In experiment [3] the test system is Staphylococcus aureus ATCC 25923.
Experiment [4] deals with Bacillus subtilis ATCC 6633.
Experiment [5] deals with Staphylococcus aureus ATCC 2592.
Experiment [6] deals with Staphylococcus aureus.
Experiment [7] concerns Candida albicans.
For experiment [8], the system named is Escherichia coli.
The subject of experiment [9] is Candida albicans ATCC 2002.
Experiment [10] concerns Bacillus subtilis.
Experiment [11] concerns Staphylococcus aureus USA 300.
Experiment [12] deals with Pseudomonas aeruginosa PAO1.
Experiment [13] has as its system Staphylococcus aureus ATCC 33591.
Experiment [14] deals with Pseudomonas aeruginosa ATCC 27853.
The test system of experiment [15] is Staphylococcus aureus ATCC 29213.
In experiment [16] the test system is Acinetobacter baumannii.
Experiment [17] has as its system Enterococcus faecalis ATCC 29212.

≈ marks a conversion by molar mass, not a printed value.

Turning to `C[C@H](N)C(=O)N[C@@H](CCCN=C(N)N)C(=O)N[C@@H](Cc1c[nH]c2ccccc12)C(=O)N[C@@H](CCCN=C(N)N)C(=O)N[C@@H](Cc1ccccc1)C(=O)N[C@@H](CCCCN)C(=O)N[C@@H](Cc1c[nH]c2ccccc12)C(=O)N[C@@H](C)C(=O)N[C@@H](CCCCN)C(=O)N[C@@H](CCCCN)C(=O)O` [ARWRFKWAKK], the minimum inhibitory concentration (MIC) is 54.5 µM (≈ 75 µg/mL) in experiment [1], 54.5 µM (≈ 75 µg/mL) in [2], 54.5 µM (≈ 75 µg/mL) in experiment [3] and at least 54.5 µM in experiment [4].

Consider `CC[C@H](C)[C@H](NC(=O)CNC(=O)[C@H](C)NC(=O)[C@@H](NC(=O)[C@H](CC(C)C)NC(=O)CNC(=O)[C@@H]1CCCN1C(=O)[C@H](CC(C)C)NC(=O)[C@@H](N)Cc1ccccc1)[C@@H](C)CC)C(=O)N[C@@H](C)C(=O)N[C@@H](CCCCN)C(=O)N[C@@H](CCSC)C(=O)N[C@@H](CC(C)C)C(N)=O` [FLPGLIAGIAKML], for which the MIC came to 9.3 µM (≈ 12.5 µg/mL) in experiment [5] and 18.6 µM (≈ 25 µg/mL) in experiment [4].

As to `CC[C@H](C)[C@H](NC(=O)[C@H](Cc1cnc[nH]1)NC(=O)[C@H](CCCCN)NC(=O)[C@@H](NC(=O)[C@@H](NC(=O)[C@H](CC(=O)O)NC(=O)[C@H](CC(C)C)NC(=O)[C@H](Cc1ccccc1)NC(=O)CN)C(C)C)C(C)C)C(=O)NCC(=O)N[C@@H](CCCCN)C(=O)N[C@@H](C)C(=O)N[C@@H](C)C(=O)N[C@@H](CC(C)C)C(=O)NCC(=O)N[C@@H](C)C(=O)N[C@H](C(=O)N[C@H](C(=O)N[C@@H](Cc1cnc[nH]1)C(=O)N[C@@H](CC(C)C)C(=O)N[C@H](C(=O)N[C@@H](CC(N)=O)C(=O)N[C@@H](CCC(N)=O)C(N)=O)[C@@H](C)CC)[C@@H](C)O)C(C)C` [GFLDVVKHIGKAALGAVTHLINQ], the minimum inhibitory concentration (MIC) in experiment [6], in experiment [7] and in [8] was 13.3 µM (≈ 32 µg/mL) throughout.

In the case of `CC[C@H](C)[C@H](NC(=O)[C@H](CCCN=C(N)N)NC(=O)[C@H](CC(C)C)NC(=O)CNC(=O)[C@H](CCCCN)NC(=O)CNC(=O)[C@@H]1CCCN1C(=O)[C@H](CC(C)C)NC(=O)[C@H](CC(N)=O)NC(=O)[C@@H]1CCCN1C(=O)[C@H](CO)NC(=O)[C@H](Cc1ccccc1)NC(=O)CN)C(=O)N[C@@H](CO)C(=O)O` [GFSPNLPGKGLRIS], the MIC was over 69.3 µM in experiment [6] and 34.7 µM (≈ 50 µg/mL) in experiment [7].

Take `CC[C@H](C)[C@H](NC(=O)[C@H](CCCCN)NC(=O)[C@H](CC(N)=O)NC(=O)[C@H](CC(C)C)NC(=O)[C@@H](NC(=O)[C@@H](NC(=O)[C@@H](NC(=O)[C@H](C)NC(=O)[C@H](C)NC(=O)[C@H](CC(N)=O)NC(=O)[C@H](CCCCN)NC(=O)[C@H](CC(C)C)NC(=O)CNC(=O)[C@H](CCC(=O)O)NC(=O)[C@H](CCCCN)NC(=O)[C@@H](NC(=O)[C@H](CO)NC(=O)[C@H](CC(=O)O)NC(=O)[C@H](Cc1c[nH]c2ccccc12)NC(=O)[C@H](Cc1ccccc1)NC(=O)CN)C(C)C)C(C)C)[C@@H](C)O)[C@@H](C)CC)C(=O)N[C@@H](CCCCN)C(=O)N[C@H]1CSSC[C@@H](C(=O)N2CCC[C@H]2C(=O)N2CCC[C@H]2C(=O)N[C@@H](C)C(=O)O)NC(=O)[C@H](CCC(=O)O)NC(=O)[C@H](CO)NC(=O)[C@H]([C@@H](C)CC)NC(=O)[C@H](CCCCN)NC1=O` [GFWDSVKEGLKNAAVTILNKIKCKISECPPA]: the MIC in experiment [5] came out at 14.9 µM (≈ 50 µg/mL); in experiment [1], 14.9 µM (≈ 50 µg/mL); in [9] it was 3.72 µM (≈ 12.5 µg/mL); in experiment [10], 29.8 µM (≈ 99.9 µg/mL).

Take `CC(C)C[C@H](NC(=O)[C@H](CC(C)C)NC(=O)[C@H](CCCCN)NC(=O)CNC(=O)[C@H](C)NC(=O)[C@H](C)NC(=O)[C@H](CCCCN)NC(=O)[C@H](C)NC(=O)[C@H](C)NC(=O)[C@H](CO)NC(=O)[C@H](CC(C)C)NC(=O)[C@H](CC(C)C)NC(=O)CN)C(N)=O` [GLLSAAKAAGKLL]: the MIC is 25 µM (≈ 30.3 µg/mL) in experiment [11], over 25 µM in experiment [1] and over 25 µM in experiment [12].

On to `CC(C)C[C@H](NC(=O)[C@H](CC(C)C)NC(=O)[C@H](CCCCN)NC(=O)CNC(=O)[C@H](CC(C)C)NC(=O)[C@H](CC(C)C)NC(=O)[C@H](CO)NC(=O)[C@H](CC(C)C)NC(=O)[C@H](CO)NC(=O)[C@H](CC(C)C)NC(=O)[C@H](CC(C)C)NC(=O)CN)C(N)=O` [GLLSLSLLGKLL], for which the MIC is 12.5 µM (≈ 15.3 µg/mL) in [11], 25 µM (≈ 30.6 µg/mL) in experiment [1] and over 25 µM in experiment [12].

On to `CC[C@H](C)[C@H](NC(=O)[C@H](CCC(N)=O)NC(=O)[C@H](CC(C)C)NC(=O)[C@H](CCC(N)=O)NC(=O)[C@@H](NC(=O)[C@H](CCCCN)NC(=O)[C@H](Cc1ccccc1)NC(=O)[C@H](Cc1c[nH]c2ccccc12)NC(=O)[C@@H](N)CCCCN)[C@@H](C)CC)C(=O)N[C@@H](CCCCN)C(=O)N[C@@H](CCCCN)C(=O)N[C@@H](Cc1c[nH]c2ccccc12)C(=O)N[C@@H](CCCCN)C(=O)N[C@@H](CC(N)=O)C(=O)N[C@@H](CCCCN)C(=O)N[C@@H](CCCCN)C(N)=O` [KWFKIQLQIKKWKNKK], for which the MIC in [1] is 32 µM (≈ 68.6 µg/mL); in experiment [13] it was at least 32 µM.

For the compound `CC(C)C[C@H](NC(=O)[C@H](CC(C)C)NC(=O)[C@H](CCCNC(=N)N)NC(=O)[C@H](CCCCN)NC(=O)[C@H](CCCNC(=N)N)NC(=O)[C@H](CC(C)C)NC(=O)[C@H](CCCCN)NC(=O)[C@H](CCCNC(=N)N)NC(=O)[C@H](CC(C)C)NC(=O)[C@H](CC(C)C)NC(=O)[C@H](CC(C)C)NC(=O)[C@H](CCCNC(=N)N)NC(=O)[C@H](CCCCN)NC(=O)[C@H](CCCNC(=N)N)NC(=O)[C@H](CC(C)C)NC(=O)[C@H](CCCCN)NC(=O)[C@H](CCCNC(=N)N)NC(=O)[C@@H](N)CC(C)C)C(=O)O` [LRKLRKRLLLRKLRKRLL], the MIC in [14] was 6.74 µM (≈ 16 µg/mL); in experiment [1], 5.06 µM (≈ 12 µg/mL); in experiment [15], over 13.5 µM; in experiment [16], 13.5 µM (≈ 32 µg/mL); in experiment [17], over 13.5 µM.

For `CC[C@H](C)[C@H](NC(=O)[C@H](CCCCN)NC(=O)[C@@H](NC(=O)[C@H](CCC(N)=O)NC(=O)[C@@H](N)CCCN=C(N)N)[C@@H](C)CC)C(=O)N[C@@H](Cc1c[nH]c2ccccc12)C(=O)N[C@@H](Cc1ccccc1)C(=O)N[C@@H](CCC(N)=O)C(=O)N[C@@H](CC(N)=O)C(=O)N[C@@H](CCCN=C(N)N)C(=O)N[C@@H](CCCN=C(N)N)C(=O)N[C@@H](CC(C)C)C(=O)N[C@@H](CCCCN)C(=O)N[C@@H](Cc1c[nH]c2ccccc12)C(=O)N[C@@H](CCCCN)C(=O)N[C@@H](CCCCN)C(N)=O` [RQIKIWFQNRRLKWKK], the MIC in experiment [1] was 32 µM (≈ 71.3 µg/mL); in [13], at least 64 µM.

As to `CC[C@H](C)[C@H](NC(=O)[C@H](CCC(N)=O)NC(=O)[C@H](CCCCN)NC(=O)[C@H](Cc1c[nH]c2ccccc12)NC(=O)[C@H](CC(C)C)NC(=O)[C@H](CCC(N)=O)NC(=O)CNC(=O)[C@H](CC(C)C)NC(=O)[C@H](CCCCN)NC(=O)[C@H](C)NC(=O)[C@H](CCC(=O)O)NC(=O)[C@H](CCCCN)NC(=O)[C@@H](NC(=O)[C@H](CCSC)NC(=O)[C@@H](NC(=O)[C@@H](NC(=O)[C@@H](NC(=O)[C@@H](N)CO)[C@@H](C)CC)[C@@H](C)CC)[C@@H](C)O)[C@@H](C)O)C(=O)N[C@@H](C)C(=O)N[C@H]1CSSC[C@@H](C(=O)O)NC(=O)[C@H]([C@@H](C)O)NC(=O)[C@H](CC(N)=O)NC(=O)[C@H](Cc2ccc(O)cc2)NC(=O)[C@H](CC(C)C)NC(=O)[C@H](CCCN=C(N)N)NC1=O` [SIITMTKEAKLGQLWKQIACRLYNTC], the MIC is 4.98 µM (≈ 15 µg/mL) in experiment [5], 39.8 µM (≈ 120 µg/mL) in experiment [1], 19.9 µM (≈ 60 µg/mL) in experiment [9] and at least 39.8 µM in experiment [10].

Regarding `CC[C@H](C)[C@H](NC(=O)[C@H](CCCCN)NC(=O)[C@H](CS)NC(=O)[C@H](C)NC(=O)[C@@H](NC(=O)[C@H](Cc1ccccc1)NC(=O)CNC(=O)[C@H](CC(C)C)NC(=O)CNC(=O)[C@@H](NC(=O)[C@H](CCCCN)NC(=O)CNC(=O)[C@H](CC(C)C)NC(=O)[C@H](CC(N)=O)NC(=O)[C@H](CCCN=C(N)N)NC(=O)[C@H](CC(C)C)NC(=O)[C@@H](NC(=O)[C@H](CO)NC(=O)[C@H](CC(C)C)NC(=O)[C@H](CCSC)NC(=O)[C@@H](N)CO)C(C)C)C(C)C)C(C)C)C(=O)N[C@@H](CC(N)=O)C(=O)N[C@@H](CCCCN)C(=O)N[C@@H](CCC(N)=O)C(=O)N[C@@H](CS)C(=O)O` [SMLSVLRNLGKVGLGFVACKINKQC], the minimum inhibitory concentration (MIC) in experiment [6] came to 100 µM (≈ 268 µg/mL); in experiment [7], 200 µM (≈ 536 µg/mL); in [8] it was 20 µM (≈ 53.6 µg/mL).
